# Reference: patent publication EP4603105A1, “PHARMACEUTICAL COMPOSITION CONTAINING CYCLIC COMPOUND HAVING SELECTIVE KRAS INHIBITORY EFFECT AGAINST HRAS AND NRAS” (CHUGAI SEIYAKU KABUSHIKI KAISHA, priority 2022, dated 2024)
# *1 amine or outer side, *2 acyl side, *3 side chain or, on linkers, in order; H or OH if unused. Where a SMILES comes first, the peptide text is derived from it. Bridges are numbered along the chain shown (N, C = ends). [ ]: non-standard residue; d: D form. The star is where a group is joined. X6 = CC(C)(C)CCN([C@@H](Cc1ccc(C(F)(F)F)cc1)C(=O)[*:2])[*:1]; hPhe(3-Cl-4-CF3) = N[C@@H](CCc1ccc(C(F)(F)F)c(Cl)c1)C(=O)O; NPrPhe(4-CF3) = CCCN[C@@H](Cc1ccc(C(F)(F)F)cc1)C(=O)O; NEtPhe(4-CF3) = CCN[C@@H](Cc1ccc(C(F)(F)F)cc1)C(=O)O; 3Oxa8azabicyclo(3.2.1)octane = C1CC2COCC1N2*; X2 = C[C@@H]1CN([*:1])[C@@H]1C(=O)[*:2]; NMeGly(cPent) = CN[C@H](C(=O)O)C1CCCC1; Aze(3S-Me) = C[C@H]1CN[C@@H]1C(=O)O; NMeF = CN[C@@H](Cc1ccccc1)C(=O)O; NMeD = CN[C@@H](CC(=O)O)C(=O)O; NMeL = CN[C@@H](CC(C)C)C(=O)O; Morpholide = C1CN(*)CCO1; NMeA = CN[C@@H](C)C(=O)O; Ac5c = NC1(C(=O)O)CCCC1; Aze = O=C(O)[C@@H]1CCN1; Ac3c = NC1(C(=O)O)CC1; Aib = CC(C)(N)C(=O)O; Sar = CNCC(=O)O
# How the values were obtained:
# [1] = molecular target: HRAS wild-type protein (Homo sapiens, UniProt P01112); assay: Binding to HRAS by surface plasmon resonance (SPR), KD and KD ratio to KRAS; details: ratio of KD for HRAS wild-type protein to KD for KRAS
# Sequence of HRAS wild-type protein (P01112 whole entry): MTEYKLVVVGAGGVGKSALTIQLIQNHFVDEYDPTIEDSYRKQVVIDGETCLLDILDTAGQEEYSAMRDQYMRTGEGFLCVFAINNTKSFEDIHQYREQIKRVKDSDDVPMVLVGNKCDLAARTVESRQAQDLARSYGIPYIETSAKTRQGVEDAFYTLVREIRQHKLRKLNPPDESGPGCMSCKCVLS
# Summary of the method: (§1)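 Affinity is measured by surface plasmon resonance at 30°C against captured, GDP-loaded RAS carrying a biotinylated Avi tag. Compounds are titrated by single-cycle kinetics, and KD comes from a 1:1 fit.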
# [2] = tested on: human lung cancer strain NCI-H441; type: cell-based
# Summary of the method: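 Readout: […] after the ATP-based reagent. Compound: serial dilutions in dimethyl sulfoxide.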
# [3] = molecular target: GDP-bound KRAS wild-type protein (Homo sapiens, UniProt P01116); assay: Binding to KRAS by surface plasmon resonance (SPR), dissociation constant KD; details: 1:1 binding model
# Sequence of GDP-bound KRAS wild-type protein (P01116 1-188 isoform P01116-2): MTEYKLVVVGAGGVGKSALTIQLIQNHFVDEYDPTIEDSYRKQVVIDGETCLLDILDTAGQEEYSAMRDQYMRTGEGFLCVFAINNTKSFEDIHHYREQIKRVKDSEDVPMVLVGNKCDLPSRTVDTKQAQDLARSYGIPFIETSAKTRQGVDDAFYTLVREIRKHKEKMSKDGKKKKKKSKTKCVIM
# Procedure: Surface plasmon resonance was used to analyze the binding affinity of compounds for KRAS, NRAS, and HRAS. The apparatus used was Biacore 8K, 8K+, or T200 (GE Healthcare), and the running buffer used was HBS (10 mM HEPES-NaOH, 150 mM NaCl, pH 7.4) containing 1 mM DTT, 10 mM MgCl2, 0.01% Tween 20, 10 µM GDP, and 4% DMSO.
# Biotinylated Avi-tag fusion KRAS, NRAS, and HRAS proteins were expressed in E. coli BL21 (DE3) strains, and after cells were homogenized, they were purified using Streptavidin Mutein Matrix and Superdex 75. After purification, GDP-loaded KRAS, NRAS, and HRAS proteins were immobilized on the surface of Sensor Chip CAP (Cytiva) coated with Biotin CAPture Reagent in an immobilization amount of about 100 to 300 RU. Binding of each compound was evaluated by the Single Cycle Kinetics method, and a running buffer or a compound solution was added to the RAS protein non-immobilized surface and the immobilized surface to obtain a binding response. The flow rate was set to 100 µL/min, and in the compound-adding cycle, compound solutions having different concentrations were intermittently added for 75 seconds each, starting from a low concentration. […] In the blank cycle, a running buffer was intermittently added and not the compound solution. The Biotin CAPture Reagent and RAS proteins were immobilized for each cycle, and at the end of each cycle, the sensor chip was regenerated by the regeneration solution appended to the Biotin CAPture Kit (Cytiva). Measurement was carried out at 30°C.
# The resulting sensorgram was subjected to curve fitting based on a 1:1 binding model on Biacore Insight Evaluation Software or T200 Evaluation Software, and thereby the dissociation constant KD of each compound with respect to KRAS, NRAS, and HRAS was determined. […] Blank indicates a compound from which the KD value with respect to NRAS or HRAS was not obtained.
# [4] = molecular target: GDP-bound NRAS wild-type protein (Homo sapiens, UniProt P01111); assay: Binding to NRAS by surface plasmon resonance (SPR), KD and KD ratio to KRAS; details: ratio of KD for GDP-bound NRAS wild-type protein to KD for KRAS
# Sequence of GDP-bound NRAS wild-type protein (P01111 whole entry): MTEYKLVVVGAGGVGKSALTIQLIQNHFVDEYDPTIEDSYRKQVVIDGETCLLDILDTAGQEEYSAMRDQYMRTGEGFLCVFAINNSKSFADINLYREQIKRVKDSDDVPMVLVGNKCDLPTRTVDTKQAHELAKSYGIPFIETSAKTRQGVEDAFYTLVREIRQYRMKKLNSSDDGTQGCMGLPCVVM
# Summary of the method: as §1
Structure (SMILES),HRAS /KRAS [1],IC50 [2],Kd [3],NRAS /KRAS [4]
CC[C@H](C)[C@@H]1NC(=O)[C@H](CC(C)C)N(C)C(=O)C[C@@H](C(=O)N2CCOCC2)N(C)C(=O)[C@H](C2CCCC2)N(C)C(=O)C2(CCCC2)NC(=O)[C@@H]2CCCN2C(=O)[C@H](CCc2ccc(C(F)(F)F)c(Cl)c2)NC(=O)CN(C)C(=O)[C@H](Cc2ccc(C(F)(F)F)cc2)N(CCC(C)(C)C)C(=O)CN(C)C(=O)CN(C)C1=O [PP0127] ([NMeL]I[Sar][Sar][X6][Sar][hPhe(3-Cl-4-CF3)]P[Ac5c][NMeGly(cPent)][NMeD]-Morpholide; lactam N-11),C (A compound having a KD ratio of 0.1 or more and less than 3 is denoted as C),25.3 nM,0.92 nM,C (A compound having a KD ratio of 0.1 or more and less than 3 is denoted as C)
CCCN1C(=O)CN(C)C(=O)[C@@H]2CCN2C(=O)[C@H]([C@@H](C)CC)NC(=O)[C@H](CC(C)C)N(C)C(=O)C[C@@H](C(=O)N2CCOCC2)N(C)C(=O)[C@H](C2CCCC2)N(C)C(=O)C2(CCCC2)NC(=O)[C@@H]2CCCN2C(=O)[C@H](CCc2ccc(C(F)(F)F)c(Cl)c2)NC(=O)CN(C)C(=O)[C@@H]1Cc1ccc(C(F)(F)F)cc1 [PP0158] ([NMeL]I[Aze][Sar][NPrPhe(4-CF3)][Sar][hPhe(3-Cl-4-CF3)]P[Ac5c][NMeGly(cPent)][NMeD]-Morpholide; lactam N-11),B (a compound having 3 or more and less than 10 is denoted as B),15.4 nM,0.85 nM,A (a compound having 10 or more and less than 20 is denoted as A)
CCCN1C(=O)[C@@H]2CCN2C(=O)[C@@H]2CCN2C(=O)[C@H]([C@@H](C)CC)NC(=O)[C@H](CC(C)C)N(C)C(=O)C[C@@H](C(=O)N2CCOCC2)N(C)C(=O)[C@H](C2CCCC2)N(C)C(=O)C2(CCCC2)NC(=O)[C@@H]2CCCN2C(=O)[C@H](CCc2ccc(C(F)(F)F)c(Cl)c2)NC(=O)CN(C)C(=O)[C@@H]1Cc1ccc(C(F)(F)F)cc1 [PP0168] ([NMeL]I[Aze][Aze][NPrPhe(4-CF3)][Sar][hPhe(3-Cl-4-CF3)]P[Ac5c][NMeGly(cPent)][NMeD]-Morpholide; lactam N-11),B (a compound having 3 or more and less than 10 is denoted as B),26.6 nM,0.67 nM,C (A compound having a KD ratio of 0.1 or more and less than 3 is denoted as C)
CCCN1C(=O)[C@@H]2CCN2C(=O)[C@H](C)N(C)C(=O)[C@H]([C@@H](C)CC)NC(=O)[C@H](CC(C)C)N(C)C(=O)C[C@@H](C(=O)N2C3CCC2COC3)N(C)C(=O)[C@H](C2CCCC2)N(C)C(=O)C2(CCCC2)NC(=O)[C@@H]2CCCN2C(=O)[C@H](CCc2ccc(C(F)(F)F)c(Cl)c2)NC(=O)CN(C)C(=O)[C@@H]1Cc1ccc(C(F)(F)F)cc1 [PP0182] ([NMeL]I[NMeA][Aze][NPrPhe(4-CF3)][Sar][hPhe(3-Cl-4-CF3)]P[Ac5c][NMeGly(cPent)][NMeD]-{3Oxa8azabicyclo(3.2.1)octane}; lactam N-11),B (a compound having 3 or more and less than 10 is denoted as B),6.2 nM,0.88 nM,C (A compound having a KD ratio of 0.1 or more and less than 3 is denoted as C)
CCCN1C(=O)[C@@H]2CCN2C(=O)[C@H](Cc2ccccc2)N(C)C(=O)[C@H]([C@@H](C)CC)NC(=O)[C@H](CC(C)C)N(C)C(=O)C[C@@H](C(=O)N2CCOCC2)N(C)C(=O)[C@H](C2CCCC2)N(C)C(=O)C2(CCCC2)NC(=O)[C@@H]2CCCN2C(=O)[C@H](CCc2ccc(C(F)(F)F)c(Cl)c2)NC(=O)CN(C)C(=O)[C@@H]1Cc1ccc(C(F)(F)F)cc1 [PP0209] ([NMeL]I[NMeF][Aze][NPrPhe(4-CF3)][Sar][hPhe(3-Cl-4-CF3)]P[Ac5c][NMeGly(cPent)][NMeD]-Morpholide; lactam N-11),C (A compound having a KD ratio of 0.1 or more and less than 3 is denoted as C),569 nM,110 nM,C (A compound having a KD ratio of 0.1 or more and less than 3 is denoted as C)
CC[C@H](C)[C@@H]1NC(=O)[C@H](CC(C)C)N(C)C(=O)C[C@@H](C(=O)N2CCOCC2)N(C)C(=O)[C@H](C2CCCC2)N(C)C(=O)C2(CC2)NC(=O)[C@@H]2CCCN2C(=O)[C@H](CCc2ccc(C(F)(F)F)c(Cl)c2)NC(=O)CN(C)C(=O)[C@H](Cc2ccc(C(F)(F)F)cc2)N(CC)C(=O)CN(C)C(=O)CN(C)C1=O [PP0234] ([NMeL]I[Sar][Sar][NEtPhe(4-CF3)][Sar][hPhe(3-Cl-4-CF3)]P[Ac3c][NMeGly(cPent)][NMeD]-Morpholide; lactam N-11),C (A compound having a KD ratio of 0.1 or more and less than 3 is denoted as C),49.9 nM,0.49 nM,B (a compound having 3 or more and less than 10 is denoted as B)
CC[C@H](C)[C@@H]1NC(=O)[C@H](CC(C)C)N(C)C(=O)C[C@@H](C(=O)N2CCOCC2)N(C)C(=O)[C@H](C2CCCC2)N(C)C(=O)C(C)(C)NC(=O)[C@@H]2CCCN2C(=O)[C@H](CCc2ccc(C(F)(F)F)c(Cl)c2)NC(=O)CN(C)C(=O)[C@H](Cc2ccc(C(F)(F)F)cc2)N(CC)C(=O)CN(C)C(=O)CN(C)C1=O [PP0235] ([NMeL]I[Sar][Sar][NEtPhe(4-CF3)][Sar][hPhe(3-Cl-4-CF3)]P[Aib][NMeGly(cPent)][NMeD]-Morpholide; lactam N-11),C (A compound having a KD ratio of 0.1 or more and less than 3 is denoted as C),4.5 nM,0.15 nM,B (a compound having 3 or more and less than 10 is denoted as B)
CCCN1C(=O)CN(C)C(=O)[C@@H]2[C@H](C)CN2C(=O)[C@H]([C@@H](C)CC)NC(=O)[C@H](CC(C)C)N(C)C(=O)C[C@@H](C(=O)N2CCOCC2)N(C)C(=O)[C@H](C2CCCC2)N(C)C(=O)C2(CCCC2)NC(=O)[C@@H]2CCCN2C(=O)[C@H](CCc2ccc(C(F)(F)F)c(Cl)c2)NC(=O)CN(C)C(=O)[C@@H]1Cc1ccc(C(F)(F)F)cc1 [PP0257] ([NMeL]I[X2][Sar][NPrPhe(4-CF3)][Sar][hPhe(3-Cl-4-CF3)]P[Ac5c][NMeGly(cPent)][NMeD]-Morpholide; lactam N-11),B (a compound having 3 or more and less than 10 is denoted as B),30.8 nM,1.4 nM,B (a compound having 3 or more and less than 10 is denoted as B)
CCCN1C(=O)CN(C)C(=O)[C@@H]2[C@@H](C)CN2C(=O)[C@H]([C@@H](C)CC)NC(=O)[C@H](CC(C)C)N(C)C(=O)C[C@@H](C(=O)N2CCOCC2)N(C)C(=O)[C@H](C2CCCC2)N(C)C(=O)C2(CCCC2)NC(=O)[C@@H]2CCCN2C(=O)[C@H](CCc2ccc(C(F)(F)F)c(Cl)c2)NC(=O)CN(C)C(=O)[C@@H]1Cc1ccc(C(F)(F)F)cc1 [PP0258] ([NMeL]I[Aze(3S-Me)][Sar][NPrPhe(4-CF3)][Sar][hPhe(3-Cl-4-CF3)]P[Ac5c][NMeGly(cPent)][NMeD]-Morpholide; lactam N-11),C (A compound having a KD ratio of 0.1 or more and less than 3 is denoted as C),11.3 nM,0.52 nM,B (a compound having 3 or more and less than 10 is denoted as B)
